Among the data in ChEMBL document CHEMBL1129472, “The structure-activity relationship between peroxisome proliferator-activated receptor gamma agonism and the antihyperglycemic activity of thiazolidinediones” (J Med Chem, 1996) are EC50 and MED values, retold here.

In assay [1] the target is T1, Peroxisome proliferator-activated receptor gamma (Mus musculus, UniProt P37238).
T1 sequence (P37238 whole entry): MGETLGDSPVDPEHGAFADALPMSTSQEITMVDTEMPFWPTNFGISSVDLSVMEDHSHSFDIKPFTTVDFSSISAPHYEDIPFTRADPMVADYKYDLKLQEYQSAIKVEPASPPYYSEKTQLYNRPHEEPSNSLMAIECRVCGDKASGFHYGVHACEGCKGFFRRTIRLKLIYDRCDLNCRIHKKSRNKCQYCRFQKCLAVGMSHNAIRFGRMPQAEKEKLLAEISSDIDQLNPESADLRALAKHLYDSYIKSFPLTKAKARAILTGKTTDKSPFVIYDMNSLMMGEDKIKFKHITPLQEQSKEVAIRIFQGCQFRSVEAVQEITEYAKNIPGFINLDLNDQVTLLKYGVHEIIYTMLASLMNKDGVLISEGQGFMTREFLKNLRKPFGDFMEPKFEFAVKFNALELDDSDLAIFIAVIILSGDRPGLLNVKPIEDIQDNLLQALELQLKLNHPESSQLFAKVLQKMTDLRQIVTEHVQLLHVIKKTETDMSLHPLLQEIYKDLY
Description: In vitro transcriptional activation of Peroxisome proliferator activated receptor gamma (PPAR) expressed in CV-1 cells

Assay [2] deals with T2, Peroxisome proliferator-activated receptor delta (Mus musculus, UniProt P35396).
T2 sequence (P35396 whole entry): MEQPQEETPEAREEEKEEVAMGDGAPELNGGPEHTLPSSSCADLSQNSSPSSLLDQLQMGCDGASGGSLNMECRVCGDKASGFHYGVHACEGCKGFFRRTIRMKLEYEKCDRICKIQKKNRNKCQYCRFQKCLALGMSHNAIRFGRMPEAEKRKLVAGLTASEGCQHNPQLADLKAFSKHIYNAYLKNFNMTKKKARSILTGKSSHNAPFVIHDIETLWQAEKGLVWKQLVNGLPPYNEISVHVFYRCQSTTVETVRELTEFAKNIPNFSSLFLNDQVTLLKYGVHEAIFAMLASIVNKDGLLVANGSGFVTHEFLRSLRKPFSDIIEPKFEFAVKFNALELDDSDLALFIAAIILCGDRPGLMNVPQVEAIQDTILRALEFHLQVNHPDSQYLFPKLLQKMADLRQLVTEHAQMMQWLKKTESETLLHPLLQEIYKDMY
Particulars: cv-1; call rule not given here.

For a further assay, the species on record is Mus musculus. Briefly: Minimum effective dose required for significant reduction in blood glucose in ob/ob mice. Format: functional.
In assay [3] the target is T3, Peroxisome proliferator-activated receptor alpha (Mus musculus, UniProt P23204).
T3 sequence (P23204 whole entry): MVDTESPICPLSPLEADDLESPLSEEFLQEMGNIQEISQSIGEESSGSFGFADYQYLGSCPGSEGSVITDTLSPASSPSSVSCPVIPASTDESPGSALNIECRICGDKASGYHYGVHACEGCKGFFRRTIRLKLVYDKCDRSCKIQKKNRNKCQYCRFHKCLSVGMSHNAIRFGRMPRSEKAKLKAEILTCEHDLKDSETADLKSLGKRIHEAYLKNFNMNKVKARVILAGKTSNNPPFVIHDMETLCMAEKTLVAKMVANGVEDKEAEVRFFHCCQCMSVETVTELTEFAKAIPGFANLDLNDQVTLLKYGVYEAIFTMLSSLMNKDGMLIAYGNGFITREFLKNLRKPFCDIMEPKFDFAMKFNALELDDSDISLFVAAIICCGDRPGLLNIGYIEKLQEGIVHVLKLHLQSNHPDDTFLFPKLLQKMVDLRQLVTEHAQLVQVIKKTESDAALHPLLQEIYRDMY
Description: In vitro transcriptional activation of peroxisome proliferator activated alpha-receptor (PPAR) expressed in CV-1 cells; Inactive. The format is functional, cell-based.

The target of assay [4] is T3, Peroxisome proliferator-activated receptor alpha. Description: In vitro transcriptional activation of peroxisome proliferator activated alpha-receptor (PPAR) expressed in CV-1 cells. The format is functional, cell-based.

On to `CN(CCOc1ccc(/C=C2\SC(=O)NC2=O)cc1)c1ccccn1`, for which the EC50 in assay [1] was 0.19 µM; in assay [2], “Not Active”; in assay [3] it was “Not Active”. The MED in the assay filed under Mus musculus stood at 300 µM/kg.

Take `CN(CCOc1ccc(CC2SC(=O)NC2=O)cc1)c1ccccn1` (configuration not stated) [ROSIGLITAZONE]: the MED in the assay filed under Mus musculus came out at 3 µM/kg. For the same compound, the EC50 entry in assay [3] is recorded as “Not Active”.

With `CN(CCCOc1ccc(CC2SC(=O)NC2=O)cc1)c1nc2ccccc2o1` (configuration not stated), the EC50 in assay [1] is 1 µM; in assay [2] it was “Not Active”; in assay [3], “Not Active”. For the same compound, the MED in the assay listed under Mus musculus was 300 µM/kg.

For the compound `CC1(COc2ccc(CC3SC(=O)NC3=O)cc2)CCCCC1` (configuration not stated) [CIGLITAZONE], the EC50 was 3 µM in assay [1], “Not Active” in assay [2] and “Not Active” in assay [3]. In the assay filed under Mus musculus, the MED worked out at 3000 µM/kg.

As to `O=C1NC(=O)C(Cc2ccc3c(c2)CC[C@H](Cc2ccccc2)O3)S1` (some centres not stated) [ENGLITAZONE], the figures for the half-maximal effective concentration (EC50) in assay [1], in assay [2] and in assay [3] were 13 µM, “Not Active” and “Not Active”, respectively.

Consider `CC(C)(Oc1ccc(Cl)cc1)C(=O)O` [CLOFIBRIC ACID], for which the results for the EC50 in assay [1], in assay [4] and in assay [2] were 600 µM, 51 µM and “Not Active”, respectively.

In the case of `CN(CCOc1ccc(C2SC(=O)NC2=O)cc1)c1nc2ccccc2o1` (configuration not stated), the results for the EC50 in assay [1], in assay [2] and in assay [3] were 10 µM, “Not Active” and “Not Active”, respectively. Moreover, the MED in the assay filed under Mus musculus is more than 1000 µM/kg.

For the compound `CN(CCOc1ccc(CC2SC(=O)NC2=O)cc1)c1nc2ccccc2o1` (configuration not stated) [BRL-48482], the EC50 entry in assay [2] and in assay [3] was “Not Active” throughout. Further, the MED in the assay listed under Mus musculus was 3 µM/kg.

With `CN(CCOc1ccc(/C=C2\SC(=O)NC2=O)cc1)c1nc2ccccc2o1`, the values for the concentration giving a half-maximal response (EC50) in assay [1], in assay [2] and in assay [3] were 0.14 µM, “Not Active” and “Not Active”, respectively. The compound also yielded an MED in the assay filed under Mus musculus of 300 µM/kg.

Take `CCc1ccc(CCOc2ccc(CC3SC(=O)NC3=O)cc2)nc1` (configuration not stated) [PIOGLITAZONE]: the EC50 entry in assay [2] and in assay [3] was “Not Active” each time. In the assay filed under Mus musculus, this compound registered an MED of 300 µM/kg.

As for `O=C(O)CCC(=O)c1ccc(Oc2ccc(Cl)cc2)cc1`, the EC50 in assay [1] was 110 µM; in assay [4] it was 80 µM; in assay [2] it was “Not Active”.

A word on the EC50: it is the concentration giving half of the maximal effect. A low value points to greater potency.
